Reference: patent US20240327364A1, “THERAPEUTIC TARGETING OF GPR68 TO INDUCE FERROPTOSIS” (University Of Maryland, Baltimore, priority 2023, published 2024)
Like-named read-outs stand apart in the source and are kept apart here.

Columns and labels:
THP-1 = assay: Cell Titer-Glo viability, Acute monocytic leukemia; format: cell-based; settings: 72 hours
Procedure: (§1) OGM2 kills wide variety of cancer cell types. Cell sensitivity can be classified in to Very Sensitive (LC50<2 μM), Sensitive (LC50=2 to 10 μM), Mildly Sensitive (LC50>10 μM), and Refractory (no killing at 10 μM). The listed established cell were incubated with OGM2 at 2 μM or 10 μM for 72 hours under standard cell culture conditions, and relative cell number was assessed using Cell Titer-Glo Luminescent Cell Viability Assay (Promega™) following the manufacturer's instructions. Luminescence was determined using a Cytation 5 reader and Gen5 software package (BioTek™).
(§2) Cancer cells, which are very sensitive to killing by OGM2 (LCs <2 μM), with reported mRNA expression of GPR68 and the related proton sensing receptor GPR4. LC50's (concentrations causing 50% lethality) were determined using CellTiter-Glo (Promega™, G7570). Cells were plated in 12-well plates (CELLTREAT Scientific Products, 229112) in 1 ml of DMEM with high glucose, GlutaMAX, HEPES, or RPMI 1640 with Penicillin-Streptomycin (ThermoFisher™, 10564029, 11875119 and 15140122) and 10% FBS. Cells were incubated overnight at 37° C. in 5% CO2. Then 1 mL of fresh media was added with DMSO, OGM, or positive control (Erastin; APExBIO Technology, LLC, B1524) and cells incubated for 3 days. On the third day, all media was removed, cells were rinsed with 1×PBS, PBS was removed, and 200 μL of 1× Passive Lysis Buffer (Promega™, E1941) was added to each well. […]. Subsequently, 20 μL of lysate was added to 100 μL CellTiter-Glo™ reagent on a LUMITRAC 200 plate (Greiner™ bio-one, 82050-726). Plates were briefly spun down and read on a GloMax-Multi Detection System (Promega™).
(§3) The cells listed in the tables above were incubated with OGM2 at 2 μM or 10 μM for 72 hours under standard cell culture conditions, and relative cell number was assessed using Cell Titer-Glo Luminescent Cell Viability Assay (Promega™) following the manufacturer's instructions. Luminescence was determined using a Cytation 5 reader and Gen5 software package (BioTek™). RNA expression of GPR68 and GPR4 in the corresponding cancer cell lines are listed, according to the publicly available The Human Protein Atlas version 22.0 and Ensembl version 103.38 (see proteinatlas.org). The consensus normalized expression value (“nTPM”=normalize transcript per million) was calculated as the maximum nTPM value for each gene in the two data sources.

MOLM-14 = assay: Cell Titer-Glo viability, Acute monocytic leukemia; format: cell-based
Procedure: as §1, §2, §3

WM-115 = assay: Cell Titer-Glo viability, Melanoma; format: cell-based
Procedure: as §1, §2, §3

DU145 = assay: Liperfluo lipid peroxidation; format: cell-based, human
From the text: (§4) OGM2 kills prostate cancer cells by inducing ferroptosis (FIG. 100). […] OGM2 induces ferroptosis in DU145 cells (FIG. 100A) and PC3 cells (FIG. 100C) based on Liperfluo™ lipid peroxidation assay. Erastin, a cystine-glutamate antiporter system Xc^− inhibitor, is a positive control ferroptosis inducer.

PC3 = assay: Liperfluo lipid peroxidation; format: cell-based, human
From the text: as §4

NCI-H82 = assay: Cell Titer-Glo viability, Lung cancer, small cell; format: cell-based
Procedure: as §1, §2, §3

HT-1080 = assay: Cell Titer-Glo viability, Fibrosarcoma; format: cell-based
Procedure: as §1, §2, §3

IRAK3 = biological target: T1, IRAK3 (Homo sapiens, UniProt Q9Y616); assay: KinomeScan; format: binding; settings: read-out: % Control
T1 construct: purchased DiscoveRx (Fremont, CA)

MAST1 = biological target: T2, MAST1 (Homo sapiens, UniProt Q9Y2H9); assay: KinomeScan; format: binding; settings: read-out: % Control
T2 construct: purchased DiscoveRx (Fremont, CA)

SRPK1 = biological target: T3, SRPK1 (Homo sapiens, UniProt Q96SB4); assay: KinomeScan; format: binding; settings: read-out: % Control
T3 construct: purchased DiscoveRx (Fremont, CA)

EGFR(T790M) = biological target: T4, EGFR(T790M) (Homo sapiens, UniProt P00533, T790M); assay: KinomeScan; format: binding; settings: read-out: % Control
T4 construct: purchased DiscoveRx (Fremont, CA)

[1] = biological target: T5, ABL1(H396P)-phosphorylated (Homo sapiens, UniProt P00519, H396P); assay: KinomeScan; format: binding; settings: read-out: % Control
T5 construct: purchased DiscoveRx

PRKCI = biological target: T6, PRKCI (Homo sapiens, UniProt P41743); assay: KinomeScan; format: binding; settings: read-out: % Control
T6 construct: purchased DiscoveRx (Fremont, CA)

SRPK2 = biological target: T7, SRPK2 (Homo sapiens, UniProt P78362); assay: KinomeScan; format: binding; settings: read-out: % Control
T7 construct: purchased DiscoveRx (Fremont, CA)

DP = biological target: T8, DP (Homo sapiens, UniProt Q13258); assay: GPCR Profiler; format: cell-based
T8 construct: host or cells: Chem-1 cells expressing Gα15

TGFBR1 = biological target: T9, TGFBR1 (Homo sapiens, UniProt P36897); assay: KinomeScan; format: binding; settings: read-out: % Control
T9 construct: purchased DiscoveRx (Fremont, CA)

INK2 = biological target: T10, INK2 (Homo sapiens, UniProt P45984); assay: KinomeScan; format: binding; settings: read-out: % Control
T10 construct: purchased DiscoveRx

GCGR = biological target: T11, GCGR (Homo sapiens, UniProt P47871); assay: GPCR Profiler; format: cell-based
T11 construct: host or cells: Chem-1 cells expressing Gα15

BB1 = biological target: T12, BB1 (Homo sapiens, UniProt P28336); assay: GPCR Profiler; format: cell-based
T12 construct: host or cells: Chem-1 cells with promiscuous Gα15

PIK3CA(M1043I) = biological target: T13, PIK3CA(M1043I) (Homo sapiens, UniProt P42336, M1043I); assay: KinomeScan; format: binding; settings: read-out: % Control
T13 construct: purchased DiscoveRx (Fremont, CA)

EPHB3 = biological target: T14, EPHB3 (Homo sapiens, UniProt P54753); assay: KinomeScan; format: binding; settings: read-out: % Control
T14 construct: purchased DiscoveRx (Fremont, CA)

IKK-alpha = biological target: T15, IKK-alpha (Homo sapiens, UniProt O15111); assay: KinomeScan; format: binding; settings: read-out: % Control
T15 construct: purchased DiscoveRx (Fremont, CA)

T8 sequence (Q13258 whole entry): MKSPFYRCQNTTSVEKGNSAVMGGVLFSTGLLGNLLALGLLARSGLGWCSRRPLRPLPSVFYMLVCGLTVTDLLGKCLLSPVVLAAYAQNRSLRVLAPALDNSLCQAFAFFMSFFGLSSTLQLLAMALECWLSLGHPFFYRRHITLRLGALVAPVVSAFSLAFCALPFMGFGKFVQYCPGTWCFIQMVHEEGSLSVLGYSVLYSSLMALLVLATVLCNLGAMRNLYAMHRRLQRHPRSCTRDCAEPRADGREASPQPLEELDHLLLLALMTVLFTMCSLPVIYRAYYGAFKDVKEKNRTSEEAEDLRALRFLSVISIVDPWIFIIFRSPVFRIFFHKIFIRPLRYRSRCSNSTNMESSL
T12 sequence (P28336 whole entry): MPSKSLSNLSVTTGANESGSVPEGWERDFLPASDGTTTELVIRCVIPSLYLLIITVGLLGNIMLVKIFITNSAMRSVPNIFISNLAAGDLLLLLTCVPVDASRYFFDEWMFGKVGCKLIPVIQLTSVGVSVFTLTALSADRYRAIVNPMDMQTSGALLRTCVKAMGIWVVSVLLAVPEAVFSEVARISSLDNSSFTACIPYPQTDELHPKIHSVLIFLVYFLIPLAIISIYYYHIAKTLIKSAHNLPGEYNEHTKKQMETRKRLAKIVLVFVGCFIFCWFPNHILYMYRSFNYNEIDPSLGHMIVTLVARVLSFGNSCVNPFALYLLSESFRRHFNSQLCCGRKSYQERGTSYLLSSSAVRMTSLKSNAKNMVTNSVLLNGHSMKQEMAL
T11 sequence (P47871 26-477): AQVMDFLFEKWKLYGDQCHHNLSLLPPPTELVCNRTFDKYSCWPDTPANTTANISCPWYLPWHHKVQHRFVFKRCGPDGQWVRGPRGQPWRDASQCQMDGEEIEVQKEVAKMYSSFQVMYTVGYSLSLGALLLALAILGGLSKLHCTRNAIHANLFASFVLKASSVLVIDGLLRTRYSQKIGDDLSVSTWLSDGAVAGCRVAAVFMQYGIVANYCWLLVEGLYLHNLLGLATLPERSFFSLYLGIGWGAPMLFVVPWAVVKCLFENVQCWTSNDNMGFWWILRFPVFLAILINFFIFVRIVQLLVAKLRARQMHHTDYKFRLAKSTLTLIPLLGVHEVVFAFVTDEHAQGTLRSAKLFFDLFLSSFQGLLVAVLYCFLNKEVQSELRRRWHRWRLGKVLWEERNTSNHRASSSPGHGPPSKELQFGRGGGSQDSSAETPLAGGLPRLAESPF
T13 sequence (P42336 whole entry M1043I): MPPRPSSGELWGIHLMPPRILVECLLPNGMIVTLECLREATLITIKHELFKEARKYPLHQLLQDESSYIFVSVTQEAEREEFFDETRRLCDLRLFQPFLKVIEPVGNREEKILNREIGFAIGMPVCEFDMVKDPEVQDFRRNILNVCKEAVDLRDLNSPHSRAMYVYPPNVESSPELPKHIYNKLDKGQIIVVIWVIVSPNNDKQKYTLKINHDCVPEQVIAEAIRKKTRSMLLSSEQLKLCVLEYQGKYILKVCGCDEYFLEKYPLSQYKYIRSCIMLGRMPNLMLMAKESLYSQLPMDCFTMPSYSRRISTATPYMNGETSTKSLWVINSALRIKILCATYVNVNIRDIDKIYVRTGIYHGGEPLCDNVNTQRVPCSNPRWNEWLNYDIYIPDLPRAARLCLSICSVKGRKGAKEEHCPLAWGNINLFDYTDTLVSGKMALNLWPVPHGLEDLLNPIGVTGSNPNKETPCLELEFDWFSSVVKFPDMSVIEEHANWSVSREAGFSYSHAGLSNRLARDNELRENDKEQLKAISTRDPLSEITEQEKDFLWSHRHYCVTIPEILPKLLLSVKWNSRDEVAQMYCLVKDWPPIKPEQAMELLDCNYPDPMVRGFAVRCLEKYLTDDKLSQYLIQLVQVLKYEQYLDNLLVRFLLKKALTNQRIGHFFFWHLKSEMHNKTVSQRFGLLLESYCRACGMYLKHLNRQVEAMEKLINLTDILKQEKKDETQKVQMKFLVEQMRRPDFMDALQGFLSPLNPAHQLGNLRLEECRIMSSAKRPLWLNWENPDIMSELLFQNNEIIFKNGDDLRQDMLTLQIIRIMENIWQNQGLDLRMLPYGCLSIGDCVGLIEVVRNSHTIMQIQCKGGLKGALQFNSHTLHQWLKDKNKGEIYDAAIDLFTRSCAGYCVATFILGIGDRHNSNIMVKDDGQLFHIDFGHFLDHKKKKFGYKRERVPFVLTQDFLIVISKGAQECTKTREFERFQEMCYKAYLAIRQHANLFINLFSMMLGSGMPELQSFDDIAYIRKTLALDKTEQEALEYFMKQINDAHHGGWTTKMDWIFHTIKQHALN
T14 sequence (P54753 34-998): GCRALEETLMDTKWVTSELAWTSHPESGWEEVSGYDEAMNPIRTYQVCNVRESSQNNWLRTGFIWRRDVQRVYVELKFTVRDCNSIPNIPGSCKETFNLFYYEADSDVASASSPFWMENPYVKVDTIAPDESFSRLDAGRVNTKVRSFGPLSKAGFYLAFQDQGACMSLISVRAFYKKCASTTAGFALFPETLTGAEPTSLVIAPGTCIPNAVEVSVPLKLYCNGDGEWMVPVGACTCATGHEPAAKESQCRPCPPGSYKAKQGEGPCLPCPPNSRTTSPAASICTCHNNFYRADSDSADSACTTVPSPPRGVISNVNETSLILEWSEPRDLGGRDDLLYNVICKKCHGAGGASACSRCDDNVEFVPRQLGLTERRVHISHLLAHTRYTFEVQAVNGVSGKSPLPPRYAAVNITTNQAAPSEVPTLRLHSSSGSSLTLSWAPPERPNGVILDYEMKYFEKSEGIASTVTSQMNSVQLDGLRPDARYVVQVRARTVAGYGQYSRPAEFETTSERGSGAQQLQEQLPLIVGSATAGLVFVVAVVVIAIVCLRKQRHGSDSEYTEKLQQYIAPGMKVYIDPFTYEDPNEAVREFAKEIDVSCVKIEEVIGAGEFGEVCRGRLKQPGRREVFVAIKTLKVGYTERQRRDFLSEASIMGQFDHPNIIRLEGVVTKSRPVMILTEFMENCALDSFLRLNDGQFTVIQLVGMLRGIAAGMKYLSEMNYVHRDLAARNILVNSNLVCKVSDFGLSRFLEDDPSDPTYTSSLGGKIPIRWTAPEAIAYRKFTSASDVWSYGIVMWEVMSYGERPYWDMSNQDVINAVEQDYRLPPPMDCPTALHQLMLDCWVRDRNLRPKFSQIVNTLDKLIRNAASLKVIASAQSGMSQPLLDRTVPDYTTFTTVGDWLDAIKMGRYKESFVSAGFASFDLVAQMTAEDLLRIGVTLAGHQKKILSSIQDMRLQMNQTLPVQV
T7 sequence (P78362 whole entry): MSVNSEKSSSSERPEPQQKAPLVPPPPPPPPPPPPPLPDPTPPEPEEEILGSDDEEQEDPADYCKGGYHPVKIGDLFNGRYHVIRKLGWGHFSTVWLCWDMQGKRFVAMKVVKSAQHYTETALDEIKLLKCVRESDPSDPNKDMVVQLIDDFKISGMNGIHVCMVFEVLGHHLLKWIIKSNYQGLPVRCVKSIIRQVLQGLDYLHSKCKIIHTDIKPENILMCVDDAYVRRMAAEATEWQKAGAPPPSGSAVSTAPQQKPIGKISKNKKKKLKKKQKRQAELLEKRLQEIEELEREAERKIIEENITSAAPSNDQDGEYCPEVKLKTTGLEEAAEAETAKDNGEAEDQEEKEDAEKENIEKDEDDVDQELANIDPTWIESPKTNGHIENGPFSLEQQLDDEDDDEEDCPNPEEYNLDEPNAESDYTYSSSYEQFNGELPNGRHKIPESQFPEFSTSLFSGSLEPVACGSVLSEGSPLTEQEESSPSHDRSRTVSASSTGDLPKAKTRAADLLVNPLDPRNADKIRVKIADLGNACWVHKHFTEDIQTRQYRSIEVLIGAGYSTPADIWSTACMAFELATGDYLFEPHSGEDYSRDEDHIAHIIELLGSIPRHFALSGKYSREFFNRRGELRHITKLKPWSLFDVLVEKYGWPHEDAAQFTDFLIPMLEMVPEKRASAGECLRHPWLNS
T9 sequence (P36897 34-503): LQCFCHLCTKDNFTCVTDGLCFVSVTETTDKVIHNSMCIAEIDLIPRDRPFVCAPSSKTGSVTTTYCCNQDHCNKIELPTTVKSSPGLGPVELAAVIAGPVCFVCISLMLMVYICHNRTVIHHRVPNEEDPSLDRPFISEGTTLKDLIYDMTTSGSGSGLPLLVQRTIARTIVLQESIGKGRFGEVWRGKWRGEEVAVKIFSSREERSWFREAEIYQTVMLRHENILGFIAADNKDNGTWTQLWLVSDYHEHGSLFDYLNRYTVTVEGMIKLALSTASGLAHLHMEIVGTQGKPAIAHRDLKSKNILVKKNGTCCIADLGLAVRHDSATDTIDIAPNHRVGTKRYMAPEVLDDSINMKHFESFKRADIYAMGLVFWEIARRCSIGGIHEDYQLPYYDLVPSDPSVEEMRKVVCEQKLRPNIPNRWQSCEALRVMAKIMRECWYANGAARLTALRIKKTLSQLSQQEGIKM
T10 sequence (P45984 whole entry): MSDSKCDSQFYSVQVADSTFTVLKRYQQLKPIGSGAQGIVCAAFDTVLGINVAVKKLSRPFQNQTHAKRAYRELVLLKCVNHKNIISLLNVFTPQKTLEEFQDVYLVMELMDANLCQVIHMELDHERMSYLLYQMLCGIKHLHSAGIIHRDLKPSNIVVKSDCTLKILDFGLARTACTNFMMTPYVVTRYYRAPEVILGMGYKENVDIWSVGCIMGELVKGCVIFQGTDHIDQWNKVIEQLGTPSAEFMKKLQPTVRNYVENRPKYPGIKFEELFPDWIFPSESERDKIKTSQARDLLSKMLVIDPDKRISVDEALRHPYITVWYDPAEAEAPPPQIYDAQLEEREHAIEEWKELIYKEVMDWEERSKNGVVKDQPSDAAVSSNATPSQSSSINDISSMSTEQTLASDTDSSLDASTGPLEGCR

Compound: CCc1ccc2c(c1)C1(NN=C(c3ccccc3)S1)C(=O)N2 (stereo not shown) [OGM2]
- % Survival 2 μM OGM (THP-1): 33.0%
- % Survival 10 μM OGM (THP-1): 9.4%
- CC50 (THP-1; Homo sapiens, THP-1, read-out: LC50 (the source's name)): < 2 µM
- Class (MOLM-14): Sensitive (Sensitive (LC50=2 to 10 μM))
- % Survival 2 μM OGM (MOLM-14; 72 hours): 65.3%
- % Survival 10 μM OGM (MOLM-14; 72 hours): 15.3%
- CC50 (MOLM-14; Homo sapiens, MOLM-14, 72 hours, read-out: LC50 (the source's name)): 2 to 10 µM
- Class (WM-115): Sensitive (Sensitive (LC50=2 to 10 μM))
- % Survival 2 μM OGM (WM-115; 72 hours): 92.9%
- % Survival 10 μM OGM (WM-115; 72 hours): 40.7%
- CC50 (WM-115; Homo sapiens, WM-115, 72 hours, read-out: LC50 (the source's name)): 2 to 10 µM
- lipid peroxidation (DU145): significantly increased lipid peroxidation
- lipid peroxidation (PC3): significantly increased lipid peroxidation
- Class (NCI-H82): Mildly
- % Survival 2 μM OGM (NCI-H82; 72 hours): 102.6%
- % Survival 10 μM OGM (NCI-H82; 72 hours): 59.9%
- CC50 (NCI-H82; Homo sapiens, NCI-H82, 72 hours, read-out: LC50 (the source's name)): > 10 µM
- Class (NCI-H82; Table 13): Low
- Class (HT-1080): Sensitive (Sensitive (LC50=2 to 10 μM))
- % Survival 2 μM OGM (HT-1080; 72 hours): 64.2%
- % Survival 10 μM OGM (HT-1080; 72 hours): 21.4%
- CC50 (HT-1080; Homo sapiens, HT-1080, 72 hours, read-out: LC50 (the source's name)): 2 to 10 µM

Compound: CCc1ccc2c(c1)C1(NN=C(c3cccc4ccccc34)S1)C(=O)N2 (stereo not shown) [OGM1, 5-ethyl-5′-naphthalen-1-ylspiro[1H-indole-3,2′-3H-1,3,4-thiadiazole]-2-one]
- remaining binding at 10 µM (IRAK3): 97%
- remaining binding at 10 µM (MAST1): 58%
- remaining binding at 10 µM (SRPK1): 77%
- remaining binding at 10 µM (EGFR(T790M)): 74%
- remaining binding at 10 µM [1]: 83%
- remaining binding at 10 µM (PRKCI): 94%
- remaining binding at 10 µM (SRPK2): 100%
- Antagonism (DP; 10 uM): −11.7
- Agonism (DP; 12.5 uM): 0.8
- remaining binding at 10 µM (TGFBR1): 100%
- remaining binding at 10 µM (INK2): 83%
- Antagonism (GCGR; 10 uM): 6.1
- Agonism (GCGR; 12.5 uM): −0.1
- Antagonism (BB1; 10 uM): 3.5
- Agonism (BB1; 12.5 uM): −0.2
- remaining binding at 10 µM (PIK3CA(M1043I)): 59%
- remaining binding at 10 µM (EPHB3): 100%
- remaining binding at 10 µM (IKK-alpha): 83%
